Reference: US10308689B2, “Dengue virus (DV) polypeptide sequences, T cell epitopes and methods and uses thereof” (LA JOLLA INSTITUTE FOR ALLERGY AND IMMUNOLOGY, priority 2010, dated 2019)
pIC50: −log10 of the molar value. Ends that are not written are not given here.

Key:
[1] = molecular target: purified HLA molecules (corresponding predicted allele); assay: MHC peptide-binding assay, summary over alleles; design: species or system human
[2] = tested on: PBMC of healthy adult blood donors from Colombo, Sri Lanka; assay: Ex vivo IFNγ ELISPOT, HLA-matched PBMC of Sri Lankan blood donors; assay type: cell-based, human; design: Total Response per epitope: unit not given here; details: for # donors responded: number of donors responding to the epitope; for T cell response [SFC]: ex vivo IFNγ SFC/10^6 PBMC; for # of responders: responding donors, HLA allele(s)
[3] = tested on: splenic CD8+ T cells from DENV3 (D3S5CX) infected HLA transgenic IFN-α/βR−/− mice; assay: IFNγ ELISPOT, CD8+ T cells of DENV3 (D3S5CX) infected HLA class I transgenic IFN-α/βR−/− mice; assay type: cell-based, mouse; details: day 7 after DENV3 D3S5CX, SFC/10^6 T cells
[4] = HLA allele, supertype and serotype
[5] = summed IFNγ ELISPOT response per epitope, HLA allele and serotype as given
[6] = restricting HLA allele and serotype as given
[7] = total over responding donors, restricting HLA allele and serotype as given
[8] = HLA A*0201 transgenic IFN-α/βR−/− mice
[9] = HLA B*0702 transgenic IFN-α/βR−/− mice
[10] = IFNγ ELISPOT response summed over responding donors, per epitope
[11] = HLA-matched PBMC, proteome-wide screen

## VATTFVTPM
[1]; allele B*3501
  pIC50: 6.69
[2]; [4]
  # donors responded: 8
[2]; per epitope
  T cell response [SFC]: 2777 SFC
[2]
  # of responders: 8
[2]; [5]
  Total Response per epitope: 2776.7

## CC[C@H](C)[C@H](NC(=O)[C@@H]1CCCN1C(=O)CNC(=O)[C@@H](NC(=O)[C@H](C)N)[C@@H](C)O)C(=O)N[C@@H](CO)C(=O)N[C@H](C(=O)N[C@@H](CC(C)C)C(=O)N[C@@H](Cc1c[nH]c2ccccc12)C(=O)O)[C@@H](C)O
[1]; allele B*5801
  pIC50: 9.00
[2]; [6]
  # donors responded: 2
[2]; per epitope
  T cell response [SFC]: 236 SFC
[2]
  # of responders: 2
[2]; [7]
  Total Response per epitope: 235.5

## CC[C@H](C)[C@H](NC(=O)[C@H](CCSC)NC(=O)[C@H](CC(C)C)NC(=O)CNC(=O)[C@H](CC(C)C)NC(=O)[C@H](CC(C)C)NC(=O)[C@H](CC(C)C)NC(=O)[C@H](CC(C)C)NC(=O)[C@@H](N)[C@@H](C)O)C(=O)N[C@@H](CC(C)C)C(=O)O [NS4A2150-2159]
[3]; [8]
  T cell response [SFC]: 990 SFC

## CSCC[C@H](N)C(=O)N1CCC[C@H]1C(=O)N[C@H](C(=O)N[C@H](C(=O)N[C@@H](C)C(=O)N[C@@H](C)C(=O)N[C@@H](CO)C(=O)N[C@@H](C)C(=O)N[C@@H](C)C(=O)N[C@@H](CCC(N)=O)C(=O)O)[C@@H](C)O)C(C)C [NS31925-1934]
[3]; [9]
  T cell response [SFC]: 690 SFC

## CC(C)C[C@H](NC(=O)[C@H](CCC(N)=O)NC(=O)[C@@H](NC(=O)[C@H](Cc1ccc(O)cc1)NC(=O)[C@@H](N)C(C)C)[C@@H](C)O)C(=O)N[C@@H](CS)C(=O)N[C@@H](CC(=O)O)C(=O)N[C@@H](Cc1c[nH]cn1)C(=O)N[C@@H](CCCNC(=N)N)C(=O)O
[1]; allele A*3301
  pIC50: 5.72
[2]; [4]
  # donors responded: 1
[2]; [5]
  Total Response per epitope: 35.0

## CC[C@H](C)[C@H](NC(=O)[C@@H]1CCCN1C(=O)CNC(=O)[C@@H](NC(=O)[C@H](C)N)[C@@H](C)O)C(=O)N[C@@H](CC(C)C)C(=O)N[C@H](C(=O)N[C@@H](CC(C)C)C(=O)N[C@@H](Cc1c[nH]c2ccccc12)C(=O)O)[C@@H](C)O
[1]; allele B*5801
  pIC50: 7.89
[2]; [6]
  # donors responded: 2
[2]; per epitope
  T cell response [SFC]: 938 SFC
[2]
  # of responders: 2
[2]; [7]
  Total Response per epitope: 938.3

## MAVGMVSIL
[1]; allele B*3501
  pIC50: 8.00
[2]; [10]
  Total Response per epitope: 361.7
[2]; [11]
  # donors responded: 5

## CSCC[C@H](NC(=O)[C@H](CCC(N)=O)NC(=O)[C@@H](N)CCCNC(=N)N)C(=O)N[C@@H](CCC(=O)O)C(=O)NCC(=O)N[C@@H](CCC(=O)O)C(=O)NCC(=O)N[C@H](C(=O)N[C@@H](CC(C)C)C(=O)O)C(C)C
[1]; allele B*1501
  pIC50: 7.72
[2]; [10]
  Total Response per epitope: 56.7
[2]; [11]
  # donors responded: 1

## QYIFTGQPL
[1]; allele A*2402
  pIC50: 6.57
[2]; [10]
  Total Response per epitope: 138.3
[2]; [11]
  # donors responded: 1

## CC[C@H](C)[C@H](NC(=O)CNC(=O)[C@H](CCC(=O)O)NC(=O)[C@@H]1CCCN1C(=O)[C@@H](N)[C@@H](C)O)C(=O)N[C@H](C(=O)N1CCC[C@H]1C(=O)N[C@@H](CO)C(=O)N[C@@H](CCSC)C(=O)O)[C@@H](C)CC
[1]; allele B*3501
  pIC50: 8.10
[2]; [10]
  Total Response per epitope: 2716.7
[2]; [11]
  # donors responded: 5
[2]; per epitope
  T cell response [SFC]: 2717 SFC
[2]
  # of responders: 5

## CSCC[C@H](NC(=O)[C@H](CCCCN)NC(=O)[C@H](CC(C)C)NC(=O)[C@@H](NC(=O)[C@@H](N)CCCNC(=N)N)C(C)C)C(=O)N[C@H](C(=O)N[C@@H](CCC(=O)O)C(=O)N1CCC[C@H]1C(=O)N[C@@H](Cc1c[nH]c2ccccc12)C(=O)O)C(C)C
[1]; allele B*5801
  pIC50: 9.00
[2]; [10]
  Total Response per epitope: 150.0
[2]; [11]
  # donors responded: 1

## ATGPITTLW
[1]; allele B*5801
  pIC50: 8.30
[2]; [6]
  # donors responded: 1
[2]; per epitope
  T cell response [SFC]: 505 SFC
[2]
  # of responders: 1
[2]; [7]
  Total Response per epitope: 505.0

## CC[C@H](C)[C@H](NC(=O)[C@H](CC(C)C)NC(=O)[C@H](CC(C)C)NC(=O)[C@H](C)NC(=O)[C@@H](NC(=O)[C@H](CCCCN)NC(=O)[C@H](CC(C)C)NC(=O)[C@H](CC(C)C)NC(=O)[C@@H](N)C(C)C)[C@@H](C)O)C(=O)N[C@H](C(=O)O)C(C)C [NS2B1444-1453]
[3]; [8]
  T cell response [SFC]: 203 SFC

## CC[C@H](C)[C@H](NC(=O)CNC(=O)[C@H](CCC(=O)O)NC(=O)CNC(=O)[C@H](CCC(=O)O)NC(=O)[C@H](CCSC)NC(=O)[C@H](CCC(N)=O)NC(=O)[C@@H](N)CCCNC(=N)N)C(=O)N[C@@H](Cc1ccccc1)C(=O)O
[1]; allele B*1501
  pIC50: 8.22
[2]; [10]
  Total Response per epitope: 108.3
[2]; [11]
  # donors responded: 1

## TPPGSRDPF
[1]; allele B*3501
  pIC50: 6.79
[2]; [4]
  # donors responded: 7
[2]; [5]
  Total Response per epitope: 1416.7

## LPVWLAYKVA
[1]; allele B*3501
  pIC50: 5.29
[2]; [10]
  Total Response per epitope: 2426.7
[2]; [11]
  # donors responded: 7
[2]; per epitope
  T cell response [SFC]: 2427 SFC
[2]
  # of responders: 7

## CC[C@H](C)[C@H](NC(=O)[C@H](Cc1ccccc1)NC(=O)[C@@H](NC(=O)[C@@H](N)C(C)C)[C@@H](C)CC)C(=O)N[C@@H](CC(C)C)C(=O)N[C@@H](CC(C)C)C(=O)N[C@@H](CCSC)C(=O)N[C@@H](CC(C)C)C(=O)N[C@H](C(=O)O)C(C)C [Epitope M268-276]
[3]; [8]
  T cell response [SFC]: 607 SFC

## KVRKDIQQW
[1]; allele B*5701
  pIC50: 7.82
[2]; [10]
  Total Response per epitope: 38.3
[2]; [11]
  # donors responded: 1

## RAAVEDEEF
[1]; allele B*5801
  pIC50: 6.06
[2]; [10]
  Total Response per epitope: 381.7
[2]; [11]
  # donors responded: 1

## GEGLHKLGY
[1]; allele B*4403
  pIC50: 6.55
[2]; [6]
  # donors responded: 2
[2]; [7]
  Total Response per epitope: 413.3

## CC[C@H](C)[C@H](NC(=O)[C@H](CCSC)NC(=O)[C@@H](N)CO)C(=O)N[C@@H](CC(N)=O)C(=O)NCC(=O)N[C@H](C(=O)N[C@H](C(=O)N[C@@H](CCCCN)C(=O)N[C@@H](CC(C)C)C(=O)O)C(C)C)C(C)C [NS52814-2822]
[3]; [8]
  T cell response [SFC]: 1016 SFC

## CC[C@H](C)[C@H](N)C(=O)N[C@@H](CS)C(=O)N[C@@H](CO)C(=O)N[C@@H](C)C(=O)N[C@H](C(=O)N1CCC[C@H]1C(=O)N[C@H](C(=O)N[C@@H](Cc1c[nH]cn1)C(=O)N[C@@H](Cc1c[nH]c2ccccc12)C(=O)O)C(C)C)C(C)C
[1]; allele B*5801
  pIC50: 8.22
[2]; [6]
  # donors responded: 1
[2]; [7]
  Total Response per epitope: 115.0

## MALSIVSLF
[1]; allele B*5101
  pIC50: 6.22
[2]; [6]
  # donors responded: 1
[2]; [7]
  Total Response per epitope: 48.3

## CC(C)C[C@H](NC(=O)[C@H](CCC(=O)O)NC(=O)[C@H](CCCCN)NC(=O)[C@H](CCCNC(=N)N)NC(=O)[C@H](CC(N)=O)NC(=O)[C@H](Cc1c[nH]c2ccccc12)NC(=O)[C@@H](NC(=O)[C@@H]1CCCN1C(=O)[C@@H](N)[C@@H](C)O)[C@@H](C)O)C(=O)O [Epitope E509-517]
[3]; [9]
  T cell response [SFC]: 1193 SFC

## MLVTPSMTM
[1]; allele B*3501
  pIC50: 5.41
[2]; [10]
  Total Response per epitope: 1735.0
[2]; [11]
  # donors responded: 8
[2]; per epitope
  T cell response [SFC]: 1735 SFC
[2]
  # of responders: 8

## CC[C@H](C)[C@H](NC(=O)[C@H](CCSC)NC(=O)[C@H](CCSC)NC(=O)[C@@H](N)CC(C)C)C(=O)N[C@@H](CC(C)C)C(=O)N1CCC[C@H]1C(=O)N[C@@H](C)C(=O)N[C@@H](C)C(=O)N[C@@H](CC(C)C)C(=O)O [Epitope C106-114, LMMILPAAL]
[3]; [8]
  T cell response [SFC]: 1679 SFC

## CC[C@H](C)[C@H](NC(=O)[C@H](CCC(N)=O)NC(=O)[C@@H](N)CCCCN)C(=O)N[C@@H](C)C(=O)N[C@@H](CC(N)=O)C(=O)N[C@@H](CCC(=O)O)C(=O)N[C@@H](CC(C)C)C(=O)N[C@@H](CC(N)=O)C(=O)N[C@@H](Cc1ccc(O)cc1)C(=O)O
[1]; allele B*1501
  pIC50: 8.05
[2]; [6]
  # donors responded: 1
[2]; [7]
  Total Response per epitope: 26.7

## YENLKYSVI
[1]; allele B*4402
  pIC50: 7.05
[2]; [4]
  # donors responded: 1
[2]; [5]
  Total Response per epitope: 381.7

## MMATIGIAL [MMATIGIAL]
[1]; allele B*3501
  pIC50: 5.95
[2]; [10]
  Total Response per epitope: 908.3
[2]; [11]
  # donors responded: 6

## DPASIAARGY
[1]; allele B*3501
  pIC50: 5.25
[2]; [6]
  # donors responded: 9
[2]; per epitope
  T cell response [SFC]: 2383 SFC
[2]
  # of responders: 9
[2]; [7]
  Total Response per epitope: 2383.3

## MEITAEWLW
[1]; allele B*5801
  pIC50: 8.30
[2]; [10]
  Total Response per epitope: 583.3
[2]; [11]
  # donors responded: 1
[2]; per epitope
  T cell response [SFC]: 583 SFC
[2]
  # of responders: 1
